The test system of data set [1] is Daudi (Burkitt Lymphoma) cells. Description: Intracellular Lactate Accumulation Assay (Lactate-Glo). Type of data set: cell-based, human. On the procedure: Intracellular lactate accumulation after a 2 h treatment with compounds of the present invention was measured in Daudi (Burkitt Lymphoma) cells using the Lactate-Glo Assay (Promega).
Daudi cells were seeded at 7,500 cells per well in 150 μL of growth medium (RPMI-1640 with 2 mM GlutaMAX+10% FBS) in clear, 96-well, flat-bottom microplates, and incubated overnight (37° C., 5% CO2). Compounds of the present invention were added using an INTEGRA VIAFLO 96 (8 point, 3-fold serial dilution, top concentration 1, 10, or 20 μM, 0.4% final DMSO concentration). After a 2 h incubation (37° C., 5% CO2) microplates containing cells were washed twice with 150 μL ice-cold PBS, resuspended in 25 μL ice-cold PBS containing 12.5 μL 0.6N HCl, and placed on a microplate shaker for 5 min to lyse the cells. Following lysis, 12.5 μL 1M Trizma base was added to neutralize the suspension, and microplates were returned to the microplate shaker for 1 min. Plates were sealed and stored at −20° C. until further processing. On the day of the assay, microplates were thawed for 45 min at room temperate and 50 μL Lactate Detection Reagent (prepared as specified by manufacturer) was added to each well. Microplates were placed on a plate shaker for 1 min and incubated at room temperature for 1 h. Luminescence was measured using a BioTek Cytation 5 Multi-Mode Reader. Curve fitting and calculation of EC50 was performed using GraphPad Prism.
In addition, Daudi human lymphoma cells were treated with a titration of Compound 67A for 4 h, then intracellular lactate was measured via LactateGlo (FIG. 2). Compound 67A treatment elevates intracellular lactate (FIGS. 3-5). […] Inhibiting MCT function in glycolytic cancer cells leads to an accumulation of intracellular lactate that impairs glycolysis and inhibits tumor cell growth, thereby making MCTs an attractive target for cancer therapy. Compound 67A inhibits the import of MCT ligands into cells, and induces dose-dependent intracellular lactate accumulation that correlates with cytotoxicity. MCT4 expression inversely correlates with lactate accumulation and the extent of Compound 67A cytotoxicity in cells.

Data set [2] has as its system Pfeiffer. Description: Compound 67A sensitivity of CRISPR screen cell line Pfeiffer. In kind it is cell-based. The following applies: Homo sapiens, Lymphoma. An excerpt: (§1) Three cell lines with varying sensitivities to Compound 67A were utilized in the CRISPR screen (Table 3, FIG. 11).
Data set [3] concerns T47D. Briefly: Compound 67A sensitivity / cell growth inhibition of CRISPR screen cell line T47D. In kind it is cell-based.
From the text: as §1
Screen hits (FDR<0.2) were identified using the drugZ algorithm (FIG. 13). MCT4 was the most significant hit consistent between the SU8686 and T47D cell lines, sensitizing both lines to Compound 67A treatment.

For data set [4], the system named is Daudi human lymphoma cells. Briefly: Reversal of 3-bromopyruvate-induced cytotoxicity. Type of data set: cell-based. To be noted: 3-bromopyruvate (MCT1 substrate). On the procedure: Compound 67A data across 439 cell lines was cross-compared with available DepMap gene essentiality data and gene expression data. A genome-wide CRISPR screen identified genes that influenced sensitivity to Compound 67A. MDCKII cells expressing human MCT1 were treated with Compound 67A and transport of the MCT1 substrate, 2-thiophene-glyoxylic acid, was quantified by LC-MS. Compound 67A-mediated reversal of cytotoxicity induced by 3-bromopyruvate, an MCT1 substrate, was measured in Daudi human lymphoma cells. Lactate was measured using Lactate-Glo. Extracellular acidification and O2 consumption were measured by Seahorse.

Data set [5] concerns Raji lymphoma cells. Briefly: Seahorse XF ECAR and OCR measurement. To be noted: Seahorse XF Analyzer. Type of data set: cell-based. The procedure:
The utilization of glycolysis and oxidative phosphorylation (OXPHOS) were measured by the extracellular acidification rate (ECAR) and oxygen consumption rate (OCR), respectively, in Raji lymphoma cells via the Seahorse XF Analyzer.

For the compound `CC(C)OC(=O)Nc1ccc(-c2cnc([C@H]3CC[C@H](NC(=O)OC(C)C)CC3)s2)c(S(=O)(=O)NC(C)(C)C)c1` [Compound 67A], the IC50 in data set [1] (Daudi human lymphoma cells, 4 h treatment, LactateGlo, read-out: induces lactate accumulation, IC50) is 0.37 µM; in data set [2] it was 0.52 µM; in data set [3] (Homo sapiens, T47D, Breast Cancer) it was 5.86 µM. In addition, in data set [1] (Homo sapiens, Daudi cells, 2 h treatment, intracellular lactate accumulation, read-out: LactateGlo EC50), the EC50 was 0.15 to 1 µM. Further, in data set [3] (T47D cells, MCT4 knockout), the “effect of MCT4 knockout on cell growth inhibition” value is listed as “enhanced Compound 67A-mediated cell growth inhibition”. Moreover, the “protection from cytotoxic effects of 3-bromopyruvate” value in data set [4] was “protected cells from the cytotoxic effects of 3-bromopyruvate”. For the same compound, in data set [5], the “extracellular acidification rate (ECAR)” value was “dose-dependent decrease in ECAR”. In addition, the “oxygen consumption rate (OCR)” value in data set [5] was “concomitant increase in OCR”.

Broadly, the IC50 is the concentration that gives 50% inhibition. Broadly, the EC50 is the concentration that produces a half-maximal response.

The values above are taken from patent US20250186404A1, “METHODS OF USING A (THIAZOLYL)BENZENESULFONAMIDE DERIVATIVE” (Cyteir Therapeutics, Inc., priority 2023, published 2025).
